Consider 16 compounds from patent US4559338A, “Soluble quinazolino-1,4-benzodiazepin-5,13-dione derivatives” (Merck & Co., Inc., priority 1985, dated 1985).

pIC50: −log10 of the molar value. Converted amounts (≈) assume the structure as drawn. Structures can show the parent of a compound that is named as a salt. Where two headings read alike, the source gives them in different places. Where a SMILES comes first, the peptide text is derived from it. [ ]: non-standard residue; d: D form. The star is where a group is joined. sY = N[C@@H](Cc1ccc(OS(=O)(=O)O)cc1)C(=O)O; Cbz = O=C(OCc1ccccc1)*; Boc = CC(C)(C)OC(=O)*

By pIC50 is commonly meant the IC50 on a negative log10 scale, so that one unit is a factor of ten. By Solubility is commonly meant the dissolved amount per volume that the medium holds.

The test system of data set [1] is CCK receptor. The settings on record: cited from earlier work.
For data set [2], the target named is T1, CCK receptor (pancreas) (Rattus norvegicus, UniProt P30551).
T1 construct: The whole pancreas of a male Sprague-Dawley rat (200-350 g); from tissue; host or cells: whole pancreas of male Sprague-Dawley rat, washed membrane homogenate
T1 sequence (P30551 1-444): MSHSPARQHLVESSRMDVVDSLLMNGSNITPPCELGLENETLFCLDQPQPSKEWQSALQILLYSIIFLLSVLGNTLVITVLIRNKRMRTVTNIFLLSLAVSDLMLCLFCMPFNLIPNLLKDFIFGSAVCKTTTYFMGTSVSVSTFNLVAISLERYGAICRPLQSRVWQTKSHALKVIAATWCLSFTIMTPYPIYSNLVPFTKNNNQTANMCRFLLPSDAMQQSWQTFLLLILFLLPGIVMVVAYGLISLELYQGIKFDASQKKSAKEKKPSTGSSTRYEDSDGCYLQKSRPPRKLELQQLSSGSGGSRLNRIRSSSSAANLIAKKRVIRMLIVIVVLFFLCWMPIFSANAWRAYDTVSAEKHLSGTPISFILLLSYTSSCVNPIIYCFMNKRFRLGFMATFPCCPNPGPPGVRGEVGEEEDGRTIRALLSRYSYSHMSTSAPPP
As to the kind of experiment: CCK receptor binding (pancreas) method, 125I-CCK. The arrangement: species or system rat (male Sprague-Dawley). The conditions noted are these: for pIC50: I-CCK-8 Pancreas assay, read-out: Anti-CCK Activity IC50; for effect on the 125I-CCK receptor binding assay (in words): additional protease inhibitors in assay buffer. On the procedure: Screening of the novel compounds according to the present invention to determine biological activity and obtain an IC50 value for them, in order to identify significant CCK-antagonism, may be accomplished using an ^125 I-CCK receptor binding assay and in vitro isolated tissue preparations. These tests involve the following:
CCK receptor binding (pancreas) method
[…] (J. Biol. Chem., 254, 9349-9351, 1979). Receptor binding is performed according to Innis and Snyder (Proc. Natl. Acad. Sci., 77, 6917-6921, 1980), with the minor modification of adding the additional protease inhibitors, phenyl-methane sulfonyl fluoride and o-phenanthroline, which have no effect on the ^125 I-CCK receptor binding assay.
The whole pancreas of a male Sprague-Dawley rat (200-350 g), which has been sacrificed by decapitation, is dissected free of fat tissue and homogenized in 20 volumes of ice-cold 50 mM Tris HCl (pH 7.7 at 25° C.) with a Brinkman Polytron PT-10. The homogenates are centrifuged at 48,000 g for 10 minutes, then the resulting pellets are resuspended in Tris Buffer, centrifuged as above, and resuspended in 200 volumes of binding assay buffer (50 mM Tris HCl, pH 7.7 at 25° C., 5 mM dithiothreitol, 0.1 mM bacitracin, 1.2 mM phenylmethane sulfonyl fluoride and 0.5 mM o-phenanthroline).
For the binding assay, 25 μl of buffer (for total binding), or unlabeled CCK-8 sulfate sufficient to give a final concentration of 1 μM of CCK-8 (for nonspecific binding), or the compounds of the formula of the compounds according to the instant invention ([…]), are added to 450 μl of the membrane suspensions in microfuge tubes. All assays are run in duplicate or triplicate, and the reaction mixtures are incubated at 37° C. for 30 minutes and centrifuged in a Beckman Microfuge (4 minutes) immediately after adding 1 ml of ice-cold incubation buffer. The supernatant is aspirated and discarded, and the pellets are counted with a Beckman Gamma 5000.
The compounds of Examples 1-9 were tested for solubility in deionized water and pH 7.4 phosphate buffer and as CCK-antagonists (pancreas assay) with the following results: […]

Data set [3] is described as follows: Solubility in deionized water and pH 7.4 phosphate buffer. It counts as physicochemical.
Data set [4] is described as follows: Solubility / stability and absorption stated in the text (no method described). The format is physicochemical. The settings on record: white powder.
The conditions of data set [5]: compound of the earlier filing U.S. Pat. No. 4,530,790; cited from earlier work.
Setting [6] is: deionized water, water, H2O (deionized water), read-out: Solubility.
[7] abbreviates: phosphate buffer, pH 7.4, aqueous buffer, pH 7.4 Buffer, read-out: Solubility.

For `CSCC[C@H](NC(=O)OC(C)(C)C)C(=O)N[C@@H](CC(=O)O)C(=O)N[C@@H](Cc1ccccc1)C(N)=O` [Boc-Met-Asp-Phe-NH2] (Boc-Met-Asp-Phe-NH2), the “CCK-antagonist activity (in words)” value in data set [1] was “can function as CCK-antagonists”.
Consider `CSCC[C@H](NC(=O)[C@H](Cc1ccc(OS(=O)(=O)O)cc1)NC(=O)OCc1ccccc1)C(=O)NCC(=O)N[C@@H](Cc1c[nH]c2ccccc12)C(=O)N[C@@H](CCSC)C(=O)N[C@@H](CC(=O)O)C(N)=O` [Cbz-Tyr(SO3 H)-Met-Gly-Trp-Met-Asp-NH2] (Cbz-[sY]MGWMD-NH2), for which the “CCK-antagonist activity (in words)” value in data set [1] is recorded as “can function as CCK-antagonists”.
Consider `CC(C)C[C@H]1C(=O)N2c3ccccc3[C@@](O)(C[C@@H]3NC(=O)c4ccccc4-n4c3nc3ccccc3c4=O)[C@H]2N1C(=O)CCC(=O)O` [Example 1, 2,3,9,9Aα-tetrahydro-9α-hydroxy-2-(2-methylpropyl)-γ,3-dioxo-9-(5,6,7,13-tetrahydro-5,13-dioxoquinazolino(3,2-A)-1,4-benzodiazepin-7-yl)-1H-imidazo(1,2-A)indole-1-butanoic acid], for which, in data set [2], the pIC50 was 3.64. For the same compound, the Solubility in data set [3] (setting [6]) turned out to be 280 µg/mL (≈ 0.44 mM); in data set [3] (setting [7]), 9500 µg/mL (≈ 14.9 mM).
For the compound `CC(C)CC1C(=O)N2c3ccccc3C(O)(C3NC(=O)c4ccccc4-n4c3nc3ccccc3c4=O)C2N1C(=O)CCC(=O)[O-].[Na+]` (stereo not drawn) [Example 2, sodium 2,3,9,9Aα-tetrahydro-9α-hydroxy-2-(2-methylpropyl)-γ,3-dioxo-9-(5,6,7,13-tetrahydro-5,13-dioxoquinazolino(3,2-A)-1,4-benzodiazepin-7-yl)-1H-imidazo(1,2-A)indole-1-butanoate], the pIC50 in data set [2] was 4.57. This compound also yielded a Solubility in data set [3] (H2O (deionized water)) of 72000 µg/mL.
In the case of `CC(C)C[C@H]1C(=O)N2c3ccccc3[C@@](O)(C[C@@H]3NC(=O)c4ccccc4-n4c3nc3ccccc3c4=O)[C@H]2N1C(=O)[C@@H](N)CCCCN` [Example 3, dihydrochloride], the pIC50 in data set [2] was 5.42. In data set [4], the “water-soluble (in words)” value is “water-soluble”.
`CC(C)C[C@H]1C(=O)N2c3ccccc3[C@@](O)(C[C@@H]3NC(=O)c4ccccc4N4C(=O)c5ccccc5NC34)[C@H]2N1C(=O)CCC(=O)O` (stereo partly drawn) [Example 4, 9-(5,6,7,7A,8,13-hexahydro-5,13-dioxoquinazolino(3,2-A)-1,4-benzodiazepin-7-yl)-2,3,9,9A-tetrahydro-9α-hydroxy-2-(2-methylpropyl)-γ,3-dioxo-1H-imidazo(1,2-A)indole-1-butanoic acid dihydrate]: in data set [2], the pIC50 is 5.21. The Solubility came out at 540 µg/mL in data set [3] (H2O (deionized water), dihydrate) and 10800 µg/mL in data set [3] (setting [7]).
Consider `CC(C)C[C@H]1C(=O)N2c3ccccc3[C@@](O)(C[C@@H]3NC(=O)c4ccccc4N4C(=O)c5ccccc5NC34)[C@H]2N1C(=O)CCC(=O)O` (stereo partly drawn) [Example 5, sodium 9-(5,6,7,7A,8,13-hexahydro-5,13-dioxoquinazolino(3,2-A)-1,4-benzodiazepin-7-yl)2,3,9,9A-tetrahydro-9α-hydroxy-2-(2-methylpropyl)-γ,3-dioxo-1H-imidazo(1,2-A)indole-1-butanoate trihydrate], for which the negative logarithm of the IC50 (pIC50) in data set [2] was 5.77. Also, in data set [3] (H2O (deionized water), trihydrate), the Solubility is > 8900 µg/mL.
As to `CC(C)C[C@H]1C(=O)N2c3ccccc3[C@@](O)(C[C@@H]3NC(=O)c4ccccc4-n4c3nc3ccccc3c4=O)[C@H]2N1C(=O)[C@@H](N)CCCNC(=O)OCc1ccccc1` [Example 6, 1,2,9,9Aα-tetrahydro-9α-hydroxy-1-[2-amino-5-((phenylmethoxy)carbonyl)aminopentanoyl]-2-(2-methylpropyl)-9-[(5,6,7,13-tetrahydro-5,13-dioxoquinazolino(3,2-A)-1,4-benzodiazepin-7-yl)methyl]-3H-imidazo(1,2-A)indol-3-one hydrochloride], in data set [2], the pIC50 was 5.74. For the same compound, in data set [3] (setting [6]), the Solubility came to 240 µg/mL.
For `CC(C)C[C@H]1C(=O)N2c3ccccc3[C@@](O)(C[C@@H]3NC(=O)c4ccccc4N4C(=O)c5ccccc5NC34)[C@H]2N1CC(=O)O` (stereo partly drawn) [Example 7, 7β-[(1-carboxymethyl-2,3,9,9Aα-tetrahydro-9α-hydroxy-2-(2-methylpropyl)-3-oxo-1H-imidazo(1,2-A)indol-9-yl)methyl]-6,7,7A-8-tetrahydro-5H,13H-quinazolino(3,2-A)-1,4-benzodiazepin-5H,13-dione solvate], the pIC50 in data set [2] is 5.85. Further, the Solubility in data set [3] (H2O (deionized water)) came out at 10500 µg/mL.
The matching figures for `CC(C)C[C@H]1C(=O)N2c3ccccc3[C@@](O)(C[C@@H]3NC(=O)c4ccccc4N4C(=O)c5ccccc5NC34)[C@H]2N1CC(=O)O` (stereo partly drawn) [Example 8, 7β-[(1-carboxymethyl-2,3,9,9Aα-tetrahydro-9α-hydroxy-2-(2-methylpropyl)-3-oxo-1H-imidazo(1,2-A)indol-9-yl)methyl]-6,7,7A-8-tetrahydro-5H,13H-quinazolino(3,2-A)-1,4-benzodiazepin-5H,13-dione sodium salt solvate]: 6.10 and > 5200 µg/mL.
As for `CC(C)C[C@@H]1N[C@H]2N(C1=O)c1ccccc1[C@]2(C[C@@H]1NC(=O)c2ccccc2-n2c1nc1ccccc1c2=O)OC(=O)CCC(=O)O` [Example 9, 7β-[(2,3,9,9Aα-tetrahydro-9α-(3-carboxy-1-oxopropoxy)-2-(2-methylpropyl)-3-oxo-1H-imidazo(1,2-A)indol-9-yl)methyl]quinazolino(3,2-A)-1,4-benzodiazepin-5,13-(6H,7H)-dione monohydrate], the pIC50 in data set [2] was 4.07.
With `CSCC[C@H](N)C(=O)N[C@@H](CC(=O)O)C(=O)N[C@@H](Cc1ccccc1)C(N)=O` [Met-Asp-Phe-NH2] (H-Met-Asp-Phe-NH2), the “CCK-antagonist activity (in words)” value in data set [1] is “can function as CCK-antagonists”.
As for `CCCC(=O)Nc1nc2c(ncn2[C@@H]2O[C@@H]3COP(=O)(O)O[C@H]3[C@H]2OC(=O)CCC)c(=O)[nH]1` [dibutyryl cyclic GMP], in data set [1] (derivatives of cyclic nucleotides, structure-function studies), the “relative CCK antagonist potency within cyclic nucleotide class (in words)” value is given as “the most potent”.
On to `CC(C)C[C@@H]1N[C@H]2N(C1=O)c1ccccc1[C@@]2(O)C[C@@H]1NC(=O)c2ccccc2-n2c1nc1ccccc1c2=O` [formula (I), 7β-((2,3,9,9Aα-tetrahydro-9α-hydroxy-2-(2-methylpropyl)-3-oxo-1H-imidazo-(1,2-A)-indol-9-yl)-methyl)quinazolino(3,2-A)(1,4) benzodiazepin-5,13-(6H,7H)dione], for which the “CCK-antagonist activity (in words)” value in data set [1] is listed as “has been shown to be a CCK-antagonist”. Also, the “solubility in water (in words)” value in data set [5] is listed as “only slightly soluble in water”.
As to `c1cnc2c(c1)ccc1cccnc12` [o-phenanthroline, reference compound], in data set [2], the “effect on the 125I-CCK receptor binding assay (in words)” value is reported as “no effect”.
The same measure, in the same setting: next, `O=S(=O)(F)Cc1ccccc1` [phenyl-methane sulfonyl fluoride, reference compound]: “no effect”.
